The source of these data is patent US7964594B1, “Amino oxazine derivatives” (Hoffmann-La Roche Inc., priority 2009, dated 2011).

Molecules are shown by their SMILES. pIC50: −log10 of the molar value.

A word on the pIC50: it is −log10 of the IC50, conventionally taken in molar units. Higher therefore signals a small IC50.

The target of this experiment is T1, BACE2 (Rattus norvegicus, UniProt Q6IE75).
T1 construct: endogenous cellular BACE2 in the Ins1e rat cell line; endogenous in cells; host or cells: INS-TMEM27 (INS1e-derived rat insulinoma cell line with doxycycline-inducible full-length hTMEM27)
T1 sequence (Q6IE75 63-514): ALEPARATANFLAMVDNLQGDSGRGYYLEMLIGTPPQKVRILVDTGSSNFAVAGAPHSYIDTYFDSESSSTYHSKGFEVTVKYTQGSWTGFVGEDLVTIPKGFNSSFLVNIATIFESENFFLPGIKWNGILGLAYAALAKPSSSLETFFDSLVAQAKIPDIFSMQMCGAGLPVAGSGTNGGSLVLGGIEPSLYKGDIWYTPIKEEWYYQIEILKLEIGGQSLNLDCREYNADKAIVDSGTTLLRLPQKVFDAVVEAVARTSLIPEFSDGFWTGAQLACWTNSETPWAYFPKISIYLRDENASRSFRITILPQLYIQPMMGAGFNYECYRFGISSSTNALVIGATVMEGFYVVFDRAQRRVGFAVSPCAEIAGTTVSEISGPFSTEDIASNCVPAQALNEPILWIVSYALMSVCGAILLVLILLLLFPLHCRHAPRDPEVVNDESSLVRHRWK
The experiment can be described thus: Assay for BACE inhibition by measuring cellular TMEM27 cleavage (INS-TMEM27 cells, ELISA of shed TMEM27). In kind it is cell-based. The following applies: inhibition of human TMEM27 cleavage by endogenous cellular BACE2 in Ins1e rat cell line; ELISA of culture medium. From the text:
Assay for BACE Inhibition by Measuring Cellular TMEM27 Cleavage
The assay uses the principle of inhibition of human TMEM27 cleavage by endogenous cellular BACE2 in the Ins1e rat cell line and shedding from the cell surface into the culture medium, followed by detection in an ELISA assay. Inhibition of BACE2 prevents the cleavage and shedding in a dose-dependent manner.
The stable cell line “INS-TMEM27” represents an INS1e-derived cell line with inducible expression (using the TetOn system) of full-length hTMEM27 in a doxycycline-dependent manner. The cells were cultured throughout the experiment in RPMI1640+Glutamax (Invitrogen) Penicillin/Streptomycin, 10% Fetal bovine serum, […], […], 100 micrograms/ml G418 and 100 microgram/ml hygromycin and were grown in adherent culture at 37° C. in a standard CO2 cell culture incubator.
INS-TMEM27 cells were seeded in 96-well plates. After 2 days in culture, BACE2 inhibitor was added in a range of concentrations as required by the assay and after a further two hours, doxycycline was added to a final concentration of 500 ng/ml. The cells were incubated for a further 46 hours and the supernatant harvested for detection of shed TMEM27.
An ELISA assay (using a pair of mouse anti-human-TMEM27 antibodies, raised against the extracellular domain of TMEM27) was used for detection of TMEM27 in the culture medium. An IC50 for BACE2 inhibition was calculated using the ELISA readout for each inhibitor concentration with standard curve-fitting software XLfit (IDBS) for the Excel spreadsheet program.
In general terms: In an ELISA, binding on a coated surface is turned into a signal by an enzyme label.

`C[C@]1(c2cc(NC(=O)c3ncccc3F)ccc2F)N=C(N)OCC12CC2` [Example 37, 3-Fluoro-pyridine-2-carboxylic acid [3-((S)-6-amino-8-methyl-5-oxa-7-aza-spiro[2.5]oct-6-en-8-yl)-4-fluoro-phenyl]-amide] had a pIC50 of 7.40.
The figure for `CC[C@@]1(c2cc(NC(=O)c3ccccn3)ccc2F)CCOC(N)=N1` [Example 18, Pyridine-2-carboxylic acid [3-((S)-2-amino-4-ethyl-5,6-dihydro-4H-[1,3]oxazin-4-yl)-4-fluoro-phenyl]-amide] is 7.46.
